These results are taken from patent US9265816B2, “Immunogenic WT-1 peptides and methods of use thereof” (priority 2006, dated 2016).

For data set [1], the system named is 697 (WT1+ leukemia cell line). Format: cell-based, human. The procedure: FIG. 9, left panel. […] CD8^+ T cells were incubated with radiolabeled target cells (pulsed or unpulsed 697 (A0201^+, WT1^+) or SKLY16 (A0201+, WT1-) at 3 different E:T ratios: Grey bars 100:1; Black bars 30:1; White bars 10:1. Y axis: percentage of cytotoxicity. X axis: target cell conditions. *-p<0.05 compared to SKLY16 controls at the same E:T ratio. Right panel: CD8+ T cells isolated as described for the left panel were incubated with radiolabeled JMN (solid line A0201+ WT1+) or MeWo (dashed line A0201+, WT1-) target cells at 4 different E:T ratios: Y axis: percentage of cytotoxicity. X axis: E:T ratios. P was <0.001 compared to MeWo controls. The presence of specific CTL was measured in a standard 4 h-chromium release assay. Target cells were pulsed with 10 microgram (mcg)/ml of synthetic peptides overnight at 37° C. and labeled with 300 μCi of Na2^51CrO4 (NEN Life Science Products, Inc., Boston, Mass.). After extensive washing, target cells were incubated with T cells at an E:T ratio ranging from 100:1 to 10:1. […] Supernatant fluids were harvested and radioactivity was measured in a gamma counter. Percent specific lysis was determined from the following formula: 100×[(experimental release minus spontaneous release)/(maximum release minus spontaneous release)]. Maximum release was determined by lysis of radiolabeled targets in 2.5% Triton X-100.

Data set [2] deals with JMN (WT1+ mesothelioma cell line). The class given is cell-based, human. The procedure: (§1) FIG. 9, left panel. […] The presence of specific CTL was measured in a standard 4 h-chromium release assay. Target cells were pulsed with 10 microgram (mcg)/ml of synthetic peptides overnight at 37° C. and labeled with 300 μCi of Na2^51CrO4 (NEN Life Science Products, Inc., Boston, Mass.). After extensive washing, target cells were incubated with T cells at an E:T ratio ranging from 100:1 to 10:1. All conditions were performed in triplicate. Plates were incubated for 4 hours at 37° C. in 5% CO2. Supernatant fluids were harvested and radioactivity was measured in a gamma counter. Percent specific lysis was determined from the following formula: 100×[(experimental release minus spontaneous release)/(maximum release minus spontaneous release)]. Maximum release was determined by lysis of radiolabeled targets in 2.5% Triton X-100.

Data set [3] relates to CD3+ T cells. Briefly: IFN-gamma ELISPOT of peptide-stimulated T cells from healthy donors with different HLA-DRB1 types. The note with it: for experiments with peptide specific T cell responses: 7 healthy donors, each a different HLA-DRB1 type, positive/total experiments; for peptide specific CD4 response, IFN-γ ELISPOT: donors with different HLA-DRB1 types, FIG. 5. The class given is cell-based, human. The method, then: PBMC were Ficoll-purified from blood and resuspended at 5×10^6/ml in Ex-Vivo-150® medium (BioWhittaker, Walkersville, Md.) containing 1% autologous plasma. After a 2-hour incubation at 37° C., the non-adherent fraction was harvested and washed repeatedly with PBS, then resuspended in media containing 1×10^3 IU/ml GM-CSF and 0.0032 IU/ml IL-4. On day 2 and 4, the same media was added as re-feed (i.e., ½ the volume of media, containing enough cytokines for the entire dish, was added). On day 5, 10 μg/ml of peptide was added.
On day 6, a maturation cocktail of cytokines was added, and cells were cultured for another 48 hours. The maturation cocktail consisted of: 4×10^2 IU/ml IL-1-beta, 0.0032 IU/ml IL-4, 1×10^3 IU/ml IL-6, 1×10^3 IU/ml GMCSF, […], and 1 μg/ml PGE2.
On day 7, DC were harvested and washed twice with RPMI, counted, aliquoted and resuspended at 1×10^6/ml in X-vivo 15® media (without serum). Peptides were added to a final concentration of 10 μg/ml, and incubated for 2 h, 37° C. and 5% CO2, gently re-suspending every 15 minutes, then washed twice in HBSS and re-suspended in RPMI+5% autologous plasma at an appropriate concentration depending on the number of effectors isolated in the next step.
In addition, on day 7, additional PBMC were used to generate additional DC and CD3^+ cells. DC were isolated from the adherent fraction and prepared as described above for the second stimulation of the effector cells on day 14. CD3^+ cells were isolated from the non-adherent fraction by negative selection and stimulated with the previously prepared DC by re-suspending the CD3^+ cells at a concentration of 2×10^6 cells/ml in RPMI+5% autologous plasma, and adding DC at an effector:DC ratio of 20:1 and 10 ng/ml IL-15. Cells were then plated in 2 ml and co-incubated at 37° C. and 5% CO2 for 1 week.
On day 14, the CD3^+ cells were stimulated a second time with the second batch of DC in the same manner, except that 1×10^6 cells/ml were mixed with DC at an effector:DC ratio of 50:1. On day 18, the same media was added as re-feed. On day 20, the DC from the previous generation were defrosted and incubated in maturation cytokines in X-vivo 15® media. On day 21, the ELISPOT assay was conducted.
Plates were pre-wet with 30 μl/well 70% alcohol, shaking the plates to ensure coverage of the entire surface area, washed 3 times with 150 μl/well sterile PBS, then incubated overnight at 4° C. with 10 μg/ml coating antibody (anti-INF clone) in PBS, 100 μl/well, wrapped in aluminum foil. Plates were then washed 2 times with 150 μl/well PBS and 1 time with RPMI/10% autologous plasma (AP), then blocked with 150 μl/well RPMI/5% AP for 2 hours at 37° C. PBMC were suspended in RPMI/5% AP at 1×10^6/ml. […]

In data set [4] the test system is CD3+ T cells. Briefly: Cross-priming: T cells stimulated with DCs incubated with tumor lysates, IFN-gamma ELISPOT against peptide-pulsed DCs. Format: cell-based, human. The note with it: for experiments in which lysate-stimulated T cells recognized the peptide: WT1 positive tumor lysates, 5 separate donors. The procedure: A CD3^+ in vitro stimulation was performed as described above. 2×10^6 immature DCs were incubated with total cellular lysate from 2×10^6 tumor cells that was previously prepared by 3 freeze/thaw cycles. Following an 18 hour incubation, maturation cytokines were added to the DCs as described above. […] These DCs were exposed to peptide again during the ELISPOT assay as described above.
Total tumor lysates were prepared from 3 different cell lines: 697 (WT1^+, HLA A0201^+), an e1a2 leukemia cell line; JMN (WT1^+, HLA A0201^+) a biphasic mesothelioma cell line, and as a control, MeWo (WT1^−, HLA A0201^+), a malignant melanoma cell line. DCs from healthy A0201^+ donors were incubated for 18 hours with the tumor lysates and used to stimulate autologous CD3^+ T cells. Following 3 stimulations, the T cells were tested for their reactivity to autologous DCs pulsed with the WT1 peptides. […] These experiments were repeated in 5 separate donors.

Another data set concerns the target HLA-A0201 (Homo sapiens, UniProt P04439, D140Y/D185E/D98H/E176V/E277Q/G131W/G231S/I119V/I121R/I166T/I218V/L300P/L318F/N151K/N90K/P208A/P217A/Q86G/Q94H/R138H/R169H/T345S). Briefly: T2 assay for peptide binding and stabilization of HLA A0201 molecules. The class given is cell-based. The conditions noted are these: Example 1. The procedure:
T2 cells (TAP^−, HLA-A0201^+) were incubated overnight at 27° C. at a concentration of 1×10^6 cells/ml in FCS-free RPMI medium supplemented with 5 μg/ml human β2m (Sigma, St Louis, Mo.) in the absence (negative control) or presence of either a positive reference tyrosinase peptide or test peptides at various final concentrations (50, 10, 1, and 0.1 micrograms (μg)/ml). Following a 4-hour incubation with 5 μg/ml brefeldin A (Sigma), T2 cells were labeled for 30 minutes at 4° C. with a saturating concentration of anti-HLA-A2.1 (BB7.2) mAb, then washed twice. Cells were then incubated for 30 minutes, 4° C. with a saturating concentration of FITC-conjugated goat IgG F(ab′)2 anti-mouse Ig (Caltag, San Francisco, Calif.), washed twice, fixed in PBS/1% paraformaldehyde and analyzed using a FACS Calibur® cytofluorometer (Becton Dickinson, Immunocytometry Systems, San Jose, Calif.).
The mean intensity of fluorescence (MIF) observed for each peptide concentration (after dividing by the MIF in the absence of peptide) was used as an indication of peptide binding and expressed as a “fluorescence index.” Stabilization assays were performed similarly. Following initial evaluation of peptide binding at time 0, cells were washed in RPMI complete medium to remove free peptides and incubated in the continuous presence of 0.5 μg/ml brefeldin-A for 2, 4, 6 or 8 hours.
The number of stable peptide-HLA-A2.1 complexes was estimated as described above by immunofluorescence. The half time of complexes is an estimate of the time required for a 50% reduction of the MIF value at time=0.

The test system of data set [5] is MeWo (WT1- melanoma cell line). Briefly: Chromium 51 cytotoxicity assay. The class given is cell-based, human. The method, then: as §1
The mark [6] stands for this setting: human T cells stimulated 2 times with the peptide.

Residues, ends and D or L forms follow the SMILES beside them.

For the compound `CSCC[C@H](NC(=O)[C@H](Cc1ccc(O)cc1)NC(=O)[C@H](C)NC(=O)[C@H](CCC(N)=O)NC(=O)CNC(=O)[C@@H](N)CO)C(=O)N[C@@H](Cc1ccccc1)C(=O)N1CCC[C@H]1C(=O)N[C@@H](CC(N)=O)C(=O)N[C@@H](C)C(=O)N1CCC[C@H]1C(=O)N[C@@H](Cc1ccc(O)cc1)C(=O)N[C@@H](CC(C)C)C(=O)N1CCC[C@H]1C(=O)N[C@@H](CO)C(=O)N[C@@H](CS)C(=O)N[C@@H](CC(C)C)C(=O)N[C@@H](CCC(=O)O)C(=O)N[C@@H](CO)C(=O)O` [Peptide 122A1] (H-SGQAYMFPNAPYLPSCLES-OH), in data set [1], the “A0201+ donors with similar cytotoxicity results” value is recorded as “¾” and the “cytotoxicity of stimulated CD8+ cells to 697” value is reported as “stimulated a sufficient number of CD8^+ cells to be cytotoxic to 697”. Further, in data set [2], the “cytotoxicity of stimulated CD4+ cells” value is on record as “no cytotoxicity”.
“PGCNKRYFKLSHLQMHSRKHTG (listed as Homo sapiens) [Peptide 328]”: in the data set with CD3+ T cells [3], the “experiments with peptide specific T cell responses” value is on record as 11/15 and the “peptide specific CD4 response, IFN-γ ELISPOT” value is reported as “stimulated a significant peptide specific CD4 response”. Also, the “experiments in which lysate-stimulated T cells recognized the peptide” value in the data set with CD3+ T cells [4] was “⅗”.
“TEYKLVVVGAPGVGKSALTIQ (listed as Homo sapiens) [RAS, reference compound]”: the “peptide specific CD4 response, IFN-γ ELISPOT” value with CD3+ T cells [3] is “did not produce IFN-γ over background levels”.
Regarding “YMFPNAPYL (One or more amino acids changed compared to native peptide sequence) [WT1 A1 (analogue)]”, the “stability of binding to HLA-A0201” value in the data set with HLA-A0201 is “stable binding”. The “recognition by T cells stimulated with DCs pulsed with 697 tumor lysate” value in the data set with CD3+ T cells [4] (697 tumor lysate) was “recognized”. In addition, the “recognition of JMN cells by stimulated CD3+ T cells” value in data set [2] (FIG. 9 right panel) is “recognized JMN cells”. The “lysis of JMN” value in data set [2] (setting [6]) amounted to 44.8%. Also, the “recognition of MeWo cells by stimulated CD3+ T cells” value in data set [5] (MeWo alone or pulsed with WT1 122A1 peptide) is on record as “not negative control MeWo cells”. Also, in data set [5] (setting [6]), the “lysis of MeWo” value turned out to be 22.2%.
For the compound “YLLPAVPSL (One or more amino acids changed compared to native peptide sequence) [WT1 C1 (analogue)]”, in the data set with HLA-A0201, the “stability of binding to HLA-A0201” value was “stable binding”.
Same read-out and setting: with “YLGEQQYSV (One or more amino acids changed compared to native peptide sequence) [WT1 B (analogue)]” the entry was “stable binding”.
“LVRHHNMHQRNMTKL (listed as Homo sapiens) [Peptide 427]”: in the data set with CD3+ T cells [4], the “experiments in which lysate-stimulated T cells recognized the peptide” value is given as “all experiments”.
For “RSDELVRHHNMHQRNMTKL (listed as Homo sapiens) [Peptide 423]”, in the data set with CD3+ T cells [3], the “experiments with peptide specific T cell responses” value is given as 3/14.
